Results reported in US20240299373A1, “IMPROVED USE OF TRADIPITANT IN MOTION SICKNESS” (Vanda Pharmaceuticals Inc., priority 2023, published 2024).
Marks after values point to notes of the source that are not given here.

How the values were obtained:
[1] = test system: apomorphine-induced emesis; assay: Emetic challenge study (apomorphine-induced emesis) in beagle dogs; type: in vivo, beagle dog; conditions: 3.0 mg/kg oral, apomorphine 0.1 mg/kg iv 2 hours later, five dogs; APO control 28
Method: Over the five (5) weeks of the study, each animal receives each of the treatments, but only one per week. The purpose of this study is to determine if tradipitant suppresses apomorphine-induced emesis.
The mid dose of tradipitant is the approximate half-log interval between the low and high doses.
All animals are dosed over a period of five (5) weeks, with each dog receiving one of five different treatments on each day of dosing.
All dogs are fasted overnight prior to each treatment day and then fed approximately one (1) hour after oral dosing (approximately one (1) hour prior to administration of apomorphine). Individual doses are adjusted weekly for changes in body weight.
The dose regimen consists of a 5×5 Latin square design, in which each subject receives 1 dose or dose combination per week (6 day washout) as shown in Table 3 below.

[2] = target: T1, NK-1 receptor (Meriones unguiculatus, UniProt Q5DUB1); assay: NK-1 agonist (GR73632, icv)-induced foot-tapping behavior in gerbils; type: in vivo; conditions: gerbil, 1 mg/kg
T1 construct: centrally acting NK-1 receptor antagonist in vivo in the gerbil; from tissue; host or cells: brain of living Mongolian gerbils
T1 sequence (Q5DUB1 whole entry): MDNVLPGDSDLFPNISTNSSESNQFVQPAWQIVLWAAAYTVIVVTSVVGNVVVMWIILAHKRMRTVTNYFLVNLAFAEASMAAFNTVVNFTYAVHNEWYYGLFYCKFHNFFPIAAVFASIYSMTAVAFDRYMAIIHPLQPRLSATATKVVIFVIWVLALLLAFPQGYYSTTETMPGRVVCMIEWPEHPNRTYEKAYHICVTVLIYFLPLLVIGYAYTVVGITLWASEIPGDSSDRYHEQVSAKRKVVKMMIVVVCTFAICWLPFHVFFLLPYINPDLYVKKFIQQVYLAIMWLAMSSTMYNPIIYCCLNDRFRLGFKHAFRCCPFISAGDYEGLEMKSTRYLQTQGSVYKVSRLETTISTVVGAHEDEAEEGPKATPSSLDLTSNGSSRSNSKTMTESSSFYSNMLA
Method: Male Mongolian gerbils (Harlan Sprague Dawley, Indianapolis, IN) weighing 26 to 40 grams are administered the selective neurokinin-1 receptor agonist GR73632 (3 pmol) via direct, vertical, free-hand intracerebroventricular (icy) injection to a depth of 4.5 mm below bregma with a cuffed 27-gauge needle attached to a 50 μl Hamilton syringe. Immediately after injection, animals are placed individually into isolated chambers with pressure-sensitive velocimeter platform floors (San Diego Instruments acoustic startle apparatus) that detect and quantify vibration. The San Diego Instruments “SR” DOS-based computer program is used on a PC to record the number of foot-taps over the following 6 to 10 minutes, beginning 30 seconds after the floor is lightly tapped. […] The total number and average intensity of events over the duration is determined. Total number of taps is analyzed with one-way ANOVA and post-hoc Dunnett's test using JMP statistical software.
A dose-response curve (with doses of 0.3, 1, 3 and 10 pmols, icy) is initially generated with the NK-1 agonist GR73632.
NK-1 antagonists are tested for their ability to attenuate GR73632-induced foot tapping. NK-1 antagonists are administered (po) via oral feeding tube at doses and time points specified in each experiment. […]
NK-1 antagonists are administered at multiple doses (at least 3; one dose per animal) and response to GR73632 is measured. […]

[3] = test system: vomiting due to motion sickness; conditions: crossover study; cited from earlier work

In the case of C[C@@H](O[C@H]1OCCN(Cc2n[nH]c(=O)[nH]2)[C@H]1c1ccc(F)cc1)c1cc(C(F)(F)F)cc(C(F)(F)F)c1 [Aprepitant, reference compound], the “Total No. Emetic Episodes” value [1] is reported as 1** and the “time after administration up to which foot-tapping behavior is inhibited” value [2] is reported as “up to 24 hours”.
In the case of COc1ccc(C(C)(C)C)cc1CN[C@H]1C2CCN(CC2)[C@H]1C(c1ccccc1)c1ccccc1 [Maropitant], the “dogs in which occurrence of vomiting was reduced as compared to placebo” value [3] is listed as “over 75%”.
